Source: ChEMBL document CHEMBL1201862, “PubChem BioAssay data set” (2004)
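Cultured in 96-well plates, cells were exposed to test compound for 48 hours across five concentrations. Abbreviation: GI50, concentration required for 50% inhibition of growth.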 Active and inactive are the calls of the source. Cut-off read from the data, not from the text of the source: active = GI50 up to about 1.1 µM and inactive = higher.

Columns and labels:
Assay in all cases: NCI anticancer screen, dose series, 48 h
LOX IMVI = tested on: LOX IMVI
A549 = tested on: A549
KM12 = tested on: KM12
BT-549 = tested on: BT-549
A498 = tested on: A498
SF-539 = tested on: SF-539
MOLT-4 = tested on: MOLT-4
HL-60 = tested on: HL-60
HT-29 = tested on: HT-29
UACC-62 = tested on: UACC-62
786-0 = tested on: 786-0
EKVX = tested on: EKVX
SW-620 = tested on: SW-620
SK-MEL-5 = tested on: SK-MEL-5
NCI-H522 = tested on: NCI-H522
HCT-15 = tested on: HCT-15
OVCAR-4 = tested on: OVCAR-4
SK-OV-3 = tested on: SK-OV-3
HOP-92 = tested on: HOP-92
M14 = tested on: M14
SK-MEL-2 = tested on: SK-MEL-2
CCRF-CEM = tested on: CCRF-CEM
NCI-H226 = tested on: NCI-H226
SK-MEL-28 = tested on: SK-MEL-28
OVCAR-5 = tested on: OVCAR-5
Hs-578T = tested on: Hs-578T
HCT-116 = tested on: HCT-116
MDA-MB-231 = tested on: MDA-MB-231
OVCAR-8 = tested on: OVCAR-8
OVCAR-3 = tested on: OVCAR-3
T47D = tested on: T47D
NCI/ADR-RES = tested on: NCI/ADR-RES
SR = tested on: SR
SNB-75 = tested on: SNB-75
TK-10 = tested on: TK-10
SF-268 = tested on: SF-268
DU-145 = tested on: DU-145
SN12C = tested on: SN12C
K562 = tested on: K562
Malme-3M = tested on: Malme-3M
RXF 393 = tested on: RXF 393
NCI-H23 = tested on: NCI-H23
MDA-N = tested on: MDA-N
MCF7 = tested on: MCF7
PC-3 = tested on: PC-3
HOP-62 = tested on: HOP-62
RPMI-8226 = tested on: RPMI-8226
HCC 2998 = tested on: HCC 2998
ACHN = tested on: ACHN
IGROV-1 = tested on: IGROV-1
U-251 = tested on: U-251
CAKI-1 = tested on: CAKI-1
MDA-MB-435 = tested on: MDA-MB-435
NCI-H460 = tested on: NCI-H460
SF-295 = tested on: SF-295
COLO 205 = tested on: COLO 205
SNB-19 = tested on: SNB-19
UO-31 = tested on: UO-31

`N=C(N)N/N=C/c1c(-c2ccc([N+](=O)[O-])cc2)nc2sc(Cl)cn12` was tested, and the GI50 (LOX IMVI) was 0.871 µM (active), the GI50 (A549) was 0.593 µM (active) and the GI50 (KM12) was 0.809 µM (active). For the same compound, the GI50 (BT-549) was 1.8 µM (inactive), the GI50 (A498) was 0.873 µM (active) and the GI50 (SF-539) was 1.89 µM (inactive). The GI50 (MOLT-4) was 0.247 µM (active), the GI50 (HL-60) was 1.38 µM (inactive) and the GI50 (HT-29) was 1.18 µM (inactive). The GI50 (UACC-62) was 1.6 µM (inactive), the GI50 (786-0) was 0.212 µM (active) and the GI50 (EKVX) was 0.611 µM (active). The GI50 (SW-620) was 0.226 µM (active), the GI50 (SK-MEL-5) was 0.891 µM (active) and the GI50 (NCI-H522) was 1.48 µM (inactive). For the same compound, the GI50 (HCT-15) was 0.312 µM, the GI50 (OVCAR-4) was 0.441 µM (active) and the GI50 (SK-OV-3) was 1.8 µM (inactive). For the same compound, the GI50 (HOP-92) was 1.73 µM (inactive), the GI50 (M14) was 1.37 µM (inactive) and the GI50 (SK-MEL-2) was 0.513 µM (active). For the same compound, the GI50 (CCRF-CEM) was 0.277 µM (active), the GI50 (NCI-H226) was 1.76 µM (inactive) and the GI50 (SK-MEL-28) was 1.69 µM (inactive). For the same compound, the GI50 (OVCAR-5) was 1.21 µM (inactive), the GI50 (Hs-578T) was 1.03 µM (active) and the GI50 (HCT-116) was 0.223 µM (active). The GI50 (MDA-MB-231) was 0.262 µM (active), the GI50 (OVCAR-8) was 0.479 µM (active) and the GI50 (OVCAR-3) was 1.27 µM (inactive). For the same compound, the GI50 (T47D) was 0.92 µM (active), the GI50 (NCI/ADR-RES) was 1.46 µM (inactive) and the GI50 (SR) was 0.0731 µM (active). The GI50 (SNB-75) was 0.593 µM (active), the GI50 (TK-10) was 2.05 µM (inactive) and the GI50 (SF-268) was 1.42 µM (inactive). For the same compound, the GI50 (DU-145) was 1.11 µM (active), the GI50 (SN12C) was 1.31 µM (inactive) and the GI50 (K562) was 0.239 µM (active). For the same compound, the GI50 (Malme-3M) was 1.47 µM (inactive), the GI50 (RXF 393) was 0.67 µM (active) and the GI50 (NCI-H23) was 0.841 µM (active). For the same compound, the GI50 (MDA-N) was 0.54 µM (active), the GI50 (MCF7) was 0.52 µM (active) and the GI50 (PC-3) was 1.12 µM (active). For the same compound, the GI50 (HOP-62) was 0.635 µM (active), the GI50 (RPMI-8226) was 1.32 µM (inactive) and the GI50 (HCC 2998) was 0.26 µM (active). For the same compound, the GI50 (ACHN) was 1.27 µM (inactive), the GI50 (IGROV-1) was 1.78 µM (inactive) and the GI50 (U-251) was 0.418 µM (active). For the same compound, the GI50 (CAKI-1) was 1.67 µM (inactive), the GI50 (MDA-MB-435) was 0.902 µM (active) and the GI50 (NCI-H460) was 1.73 µM (inactive). The GI50 (SF-295) was 1.17 µM (inactive), the GI50 (COLO 205) was 0.658 µM (active) and the GI50 (SNB-19) was 0.667 µM (active). The GI50 (UO-31) was 0.979 µM (active).
